# Measured values reported in patent US6951881B2, “(1-substituted-indol-3-yl) alkylidenehydrazinecarboximidamide derivatives as 5-hydroxytryptamine-6 ligands” (Wyeth, priority 2002, dated 2005).
# Target: T1, human cloned 5-HT6 receptors (Homo sapiens, UniProt P50406)
# T1 construct: expressed in transfected cells; host or cells: HeLa cells
# Assay type: binding
# Settings: [3H]-LSD 3.0 nM, Hela cell membranes; read-out: 5-HT6 Binding Ki
# Protocol: This operation is repeated.
# The reaction is allowed to proceed in the dark for 120 min at room temperature, at which time, the bound ligand-receptor complex is filtered off on a 96 well unifilter with a Packard Filtermate® 196 Harvester. The bound complex caught on the filter disk is allowed to air dry and the radioactivity is measured in a Packard TopCount® equipped with six photomultiplier detectors, after the addition of 40.0 μl Microscint®-20 scintillant to each shallow well. The unifilter plate is heat-sealed and counted in a PackardTopCount® with a tritium efficiency of 31.0%.
# Specific binding to the 5-HT6 receptor is defined as the total radioactivity bound less the amount bound in the presence of 10.0 μM unlabeled methiothepin. Binding in the presence of varying concentrations of test compound is expressed as a percentage of specific binding in the absence of test compound. The results are plotted as logit % bound versus log concentration of test compound. Nonlinear regression analysis of data points with a computer assisted program Prism® yields both the IC50 and the Ki values of test compounds with 95% confidence limits.
# The amount of displacement by the test compound is given in percent (%) inhibition and is derived from the following equation: [formula] where B0 is the amount of CPM bound in the presence of the testing agent. NSB represents the CPM bound in the presence of a saturating concentration of a displacer and TB represents the total amount of CPM bound at zero (0) concentration of test compound.
# Alternatively, a linear regression line of decline of data points is plotted, from which the IC50 value can be read off and the Ki value determined by solving the following equation: [formula] where L is the concentration of the radioactive ligand used and KD is the dissociation constant of the ligand for the receptor, both expressed in nM.
# T1 sequence (P50406 whole entry): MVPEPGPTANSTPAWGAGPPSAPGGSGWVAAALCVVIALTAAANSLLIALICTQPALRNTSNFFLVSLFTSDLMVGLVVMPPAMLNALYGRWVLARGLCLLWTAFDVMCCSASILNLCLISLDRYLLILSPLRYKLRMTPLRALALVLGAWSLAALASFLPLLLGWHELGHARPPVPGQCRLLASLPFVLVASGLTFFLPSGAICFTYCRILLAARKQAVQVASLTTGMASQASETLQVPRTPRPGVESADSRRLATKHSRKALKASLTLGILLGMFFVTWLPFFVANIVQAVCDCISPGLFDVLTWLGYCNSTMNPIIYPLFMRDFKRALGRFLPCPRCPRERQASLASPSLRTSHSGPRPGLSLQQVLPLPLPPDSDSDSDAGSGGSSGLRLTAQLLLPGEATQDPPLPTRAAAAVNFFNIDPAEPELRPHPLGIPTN
row,Ki,SMILES
1,19 nM,"CC(=NNC(=N)N)c1c(-c2ccccc2)n(C)c2ccccc12 [Example 86, 2-[1-(1-methyl-2-phenyl-1H-indol-3-yl)-ethylidene]hydrazinecarboximidamide]"
2,11 nM,"CN(N=Cc1c(-c2ccccc2)n(C)c2ccccc12)C1=NCCN1 [Example 90, N-(4,5-dihydro-1H-imidazol-2-yl)-N′-[(1-methyl-2-phenyl-1H-indol-3-yl)-methylene]-N-methylhydrazine]"

# Same assay, conditions: test compound dose 10 nM; displacement of [3H]-LSD
row,inhibition at 0.01 µM,SMILES
1,38.3%,"CC(=NNC(=N)N)c1c(-c2ccc(F)cc2)[nH]c2ccccc12 [Example 74, 2-{1-[2-(4-fluoro-phenyl)-1H-indol-3-yl]-ethylidene}hydrazinecarboximidamide]"

# Same assay, conditions: test compound dose 1000 nM; displacement of [3H]-LSD
inhibition at 1 µM,SMILES,% Inhibition
23%,"CN(N=C(CCc1ccccc1)c1c(-c2ccccc2)[nH]c2ccccc12)C1=NCCN1 [Example 69, N-(4,5-dihydro-1H-imidazol-2-yl)-N-methyl-N′-[3-phenyl-1-(2-phenyl-1H-indol-3-yl)-propylidene]hydrazine]",–
33.9%,"CN(N=C(CCc1ccccc1)c1c(-c2ccc(Cl)cc2)[nH]c2ccccc12)C1=NCCN1 [Example 70, N′-{1-[2-(4-chloro-phenyl)-1H-indol-3-yl]-3-phenyl-propylidene}-N-(4,5-dihydro-1H-imidazol-2-yl)-N-methylhydrazine]",–
30%,"CN(N=C(C=Cc1ccccc1)c1c(-c2ccccc2)[nH]c2ccccc12)C1=NCCN1 [Example 71, N-(4,5-dihydro-1H-imidazol-2-yl)-N-methyl-N′-[3-phenyl-1-(2-phenyl-1H-indol-3-yl)-allylidene]hydrazine]",–
40.9%,"CN(N=C(C=Cc1ccccc1)c1c(-c2ccc(Cl)cc2)[nH]c2ccccc12)C1=NCCN1 [Example 72, N′-{1-[2-(4-chloro-phenyl)-1H-indol-3-yl]-3-phenyl-allylidene}-N-(4,5-dihydro-1H-imidazol-2-yl)-N-methylhydrazine]",–
37.5%,"CN(N=C(Cc1ccc(Cl)cc1)c1c(-c2ccc(Cl)cc2)[nH]c2ccccc12)C1=NCCN1 [Example 73, N′-{2-(4-chloro-phenyl)-1-[2-(4-chloro-phenyl)-1H-indol-3-yl]-ethylidene}-N-(4,5-dihydro-1H-imidazol-2-yl)-N-methylhydrazine]",–
73.2%,"CC(=NNC(=N)N)c1c(-c2ccc(F)c(F)c2)[nH]c2ccccc12 [Example 75, 2-{1-[2-(3,4-difluoro-phenyl)-1H-indol-3-yl]-ethylidene}hydrazinecarboximidamide]",–
–,"CC(=NNC(=N)N)c1c(-c2ccccc2)n(CCc2ccccc2)c2ccccc12 [Example 78, 2-{[1-(2-Phenethyl)-2-phenyl-1H-indol-3-yl]ethylidene}hydrazine-carboximidamide]",84.2%
31.3%,"Cn1c(-c2ccccc2)c(C(=NNC(=N)N)C2CCCCC2)c2ccccc21 [Example 79, 2-[cyclohexyl-(1-methyl-2-phenyl-1H-indol-3-yl)-methylene]hydrazinecarboximidamide]",–
8.7%,"N=C(N)NN=C(c1c(-c2ccccc2)n(-c2ccccc2)c2ccccc12)C1CCCCC1 [Example 80, 2-[cyclohexyl-(1,2-diphenyl-1H-indol-3-yl)-methylene]hydrazinecarboximidamide]",–
43.2%,"CC(C)C(=NNC(=N)N)c1c(-c2ccccc2)n(C)c2ccccc12 [Example 81, 2-[1-(1-methyl-2-phenyl-1H-indol-3-yl)-2-methyl-propylidene]hydrazinecarboximidamide]",–
21.5%,"CC(C)C(=NNC(=N)N)c1c(-c2ccccc2)n(-c2ccccc2)c2ccccc12 [Example 82, 2-[1-(1,2-diphenyl-1H-indol-3-yl)-2-methyl-propylidene]hydrazinecarboximidamide]",–
31%,"Cn1c(-c2ccccc2)c(C(Cc2ccccc2)=NNC(=N)N)c2ccccc21 [Example 83, 2-[1-(1-methyl-2-phenyl-1H-indol-3-yl)-2-phenyl-ethylidene]hydrazinecarboximidamide]",–
22.9%,"N=C(N)NN=C(Cc1ccccc1)c1c(-c2ccccc2)n(-c2ccccc2)c2ccccc12 [Example 84, 2-[1-(1,2-diphenyl-1H-indol-3-yl)-2-phenyl-ethylidene]hydrazinecarboximidamide]",–
99.4%,"CC(=NNC(=N)N)c1c(-c2ccccc2)n(C)c2ccccc12 [Example 86, 2-[1-(1-methyl-2-phenyl-1H-indol-3-yl)-ethylidene]hydrazinecarboximidamide]",–
31.3%,"CC(=NNC(=N)N)c1c(-c2ccccc2)n(-c2ccccc2)c2ccccc12 [Example 87, 2-[1-(1,2-diphenyl-1H-indol-3-yl)-ethylidene]hydrazinecarboximidamide]",–
70.6%,"Cn1c(-c2ccccc2)c(C=NNC(=N)N)c2ccccc21 [Example 89, 2-[(1-methyl-2-phenyl-1H-indol-3-yl)-methylene]hydrazinecarboximidamide]",–

inhibition at 1 µM,SMILES,% Inhibition
99.9%,"CN(N=Cc1c(-c2ccccc2)n(C)c2ccccc12)C1=NCCN1 [Example 90, N-(4,5-dihydro-1H-imidazol-2-yl)-N′-[(1-methyl-2-phenyl-1H-indol-3-yl)-methylene]-N-methylhydrazine]",–
24%,"N=C(N)NN=Cc1c(-c2ccccc2)n(-c2ccccc2)c2ccccc12 [Example 91, 2-[(1,2-diphenyl-1H-indol-3-yl)-methylene]hydrazinecarboximidamide]",–
17.8%,"CN(N=Cc1c(-c2ccccc2)n(-c2ccccc2)c2ccccc12)C1=NCCN1 [Example 92, N-(4,5-dihydro-1H-imidazol-2-yl)-N′-[(1,2-diphenyl-1H-indol-3-yl)-methylene]-N-methylhydrazine]",–
22.3%,"CC(=NNC(=N)N)c1c(-c2ccc(Cl)cc2)n(Cc2ccccc2)c2ccccc12 [Example 93, 2-{1-[1-benzyl-2-(4-chloro-phenyl)-1H-indol-3-yl]-ethylidene}hydrazinecarboximidamide]",–
19.7%,"N=C(N)NN=Cc1c(-c2ccc(Cl)cc2)n(Cc2ccccc2)c2ccccc12 [Example 94, 2-{[1-benzyl-2-(4-chloro-phenyl)-1H-indol-3-yl]-methylene}hydrazinecarboximidamide]",–
–,"CN(N=Cc1c(-c2ccc(Cl)cc2)n(Cc2ccccc2)c2ccccc12)C1=NCCN1 [Example 95, N-{[1-benzyl-2-(4-chloro-phenyl)-1H-indol-3-yl]-methylene}-N′-(4,5-dihydro-1H-imidazol-2-yl)-N-methylhydrazine]",20.0%
15.6%,"N=C(N)NN=Cc1c(-c2ccc(Cl)cc2)n(Cc2ccccc2Cl)c2ccccc12 [Example 96, 2-{[1-(2-chloro-benzyl)-2-(4-chloro-phenyl)-1H-indol-3-yl]-methylene}hydrazinecarboximidamide]",–
–,"CN(N=Cc1c(-c2ccc(Cl)cc2)n(Cc2ccccc2Cl)c2ccccc12)C1=NCCN1 [Example 97, N-{[1-(2-chloro-benzyl)-2-(4-chloro-phenyl)-1H-indol-3-yl]-methylene}-N′-(4,5-dihydro-1H-imidazol-2-yl)-N-methylhydrazine]",0.4%
21.1%,"Cc1ccc(Cn2c(-c3ccc(Cl)cc3)c(C=NNC(=N)N)c3ccccc32)cc1 [Example 98, 2-{[2-(4-chloro-phenyl)-1-(4-methyl-benzyl)-1H-indol-3-yl]-methylene}hydrazinecarboximidamide]",–
–,"Cc1ccc(Cn2c(-c3ccc(Cl)cc3)c(C=NN(C)C3=NCCN3)c3ccccc32)cc1 [Example 99, N-{[2-(4-chloro-phenyl)-1-(4-methyl-benzyl)-1H-indol-3-yl]-methylene}-N′-(4,5-dihydro-1H-imidazol-2-yl)-N-methylhydrazine]",5.7%
31.5%,"CC(=NNC(=N)N)c1c(-c2ccc(Cl)cc2)n(Cc2csc(C)n2)c2ccccc12 [Example 100, 2-(1-{2-(4-chlorophenyl)-1-[(2-methyl-1,3-thiazol-4-yl)methyl]-1H-indol-3-yl}ethylidene)-1hydrazinecarboximidamide]",–
24%,"Cc1nc(Cn2c(-c3ccc(Cl)cc3)c(C=NNC(=N)N)c3ccccc32)cs1 [Example 101, 2-({2-(4-chlorophenyl)-1-[(2-methyl-1,3-thiazol-4-yl)methyl]-1H-indol-3-yl}methylidene)-1hydrazinecarboximidamide]",–
62.7%,"Cc1nc(Cn2c(-c3ccc(Cl)cc3)c(C=CNNC3=NCCN3)c3ccccc32)cs1 [Example 102, {[2-(4-chlorophenyl)-1((2-methyl-thiazol-4-yl)methyl)-1H-indol-3-yl]methylene}-N′-(4,5-dihydro-1H-imidazol-2-yl)-N-methylhydrazine]",–
80.1%,"CCn1c(-c2ccc(Cl)cc2)c(C=NNC(=N)N)c2ccccc21 [Example 103, 2-{[2-(4-chloro-phenyl)-1-ethyl-1H-indol-3-yl]-methylene}hydrazinecarboximidamide]",–
–,"CCn1c(-c2ccc(Cl)cc2)c(C=NN(C)C2=NCCN2)c2ccccc21 [Example 104, N-{[2-(4-chloro-phenyl)-1-ethyl-1H-indol-3-yl]-methylene}-N′-(4,5-dihydro-1H-imidazol-2-yl)-N-methylhydrazine]",100.0%
87.2%,"CC(=NNC(=N)N)c1c(-c2ccc(Cl)cc2)n(CCC#N)c2ccccc12 [Example 107, 2-{1-[2-(4-chloro-phenyl)-1-(2-cyano-ethyl)-1H-indol-3-yl]-ethylidene}hydrazinecarboximidamide]",–
